# Test results: patent US20240300900A1, “HYDROPHILIC AZADIBENZOCYCLOOCTYNE DERIVATIVES AND METAL-FREE CLICK REACTIONS WITH THESE HYDROPHILIC AZADIBENZOCYCLOOCTYNE DERIVATIVES” (Roche Diagnostics Operations, Inc., priority 2021, published 2024)
# Assays:
# [1] = Hydrophobicity indicated by reverse phase HPLC (YMC-Triart C18); format: physicochemical; conditions: YMC-Triart C18, 0-100% MeCN in H2O, 0.1% TFA in 25 min; later retention = more hydrophobic
# Text: The other way round, an earlier retention corresponded to higher hydrophilie.
# [2] = Solubility experiments: successive mixing with water, visual inspection; format: physicochemical; conditions: sonicated 10 s
# Text: If solid compound was still visible, this was considered as not dissolved. If no solid compound was visible, this was considered as dissolved.
# [3] = theoretical concentration 0.6 mM
# [4] = theoretical concentration 6.0 mM
# [5] = theoretical concentration 12.4 mM
# [6] = theoretical concentration 16.5 mM
# [7] = theoretical concentration 515 mM
SMILES,Retention Time [1],"dissolved in water (visual inspection) [2, 3]","dissolved in water (visual inspection) [2, 4]","dissolved in water (visual inspection) [2, 5]","dissolved in water (visual inspection) [2, 6]","dissolved in water (visual inspection) [2, 7]"
O=C(O)CCCNC(=O)CCCC(=O)N1Cc2cc(OC[C@@H](O)CO)ccc2C#Cc2ccc(OC[C@@H](O)CO)cc21 [Compound 7],11.58 min,–,–,–,–,–
O=C(CCCC(=O)N1Cc2cc(OC[C@@H](O)CO)ccc2C#Cc2ccc(OC[C@@H](O)CO)cc21)NCCCC(=O)ON1C(=O)CCC1=O [Compound 8],–,yes,yes,yes,no,no
O=C(O)CCCCC(=O)N1Cc2ccccc2C#Cc2ccccc21 [Compound 31],15.18 min,no,no,no,no,no
O=C(CCC(=O)N1Cc2ccccc2C#Cc2ccccc21)ON1C(=O)CCC1=O [Compound 32],–,no,no,no,no,no
